The conditions of data set [1]: pH 7; cited from earlier work.
In data set [2] the test system is Diffuse knapweed (Centaurea diffusa). Nature of the data set: Greenhouse pre-emergence dose-response bioassay (GR50). The class given is in vivo. The note with it: pre-emergence. From the text:
(§1) A greenhouse experiment was designed to determine if the extended control of Dalmatian toadflax and downy brome provided by indaziflam in the field was due to increased residual seedling control. This experiment was designed to compare indaziflam's pre-emergence efficacy to the currently recommended herbicides (aminocyclopyrachlor and aminopyralid) for annual, biennial, and perennial weed control in non-crop areas. […] This allows for direct comparisons between herbicides on an active ingredient basis for aminopyralid, aminocyclopyrachlor, and indaziflam.
(§2) For the greenhouse bioassay, seeds were planted at a constant depth of 0.5 cm in 13- by 9- by 6-cm plastic containers, filled with an Otero sandy clay loam field soil (Coarse-loamy, mixed (calcareous), mesic Aridic Ustorthents) with 3.9% OM and pH 7.7. Seeding densities were adjusted based on germinability to reach a target density of 40 plants/pot. Plants were maintained in a greenhouse with a 25/20° C. day/night temperature with natural light supplemented with high-intensity discharge lamps to give a 15-h photoperiod. Plants were sub-irrigated as needed and misted overhead daily to reduce soil crusting.
(§3) The greenhouse experiment was a completely randomized design with a factorial of seven herbicide rates and a non-treated control with three replicates per treatment. The experiments were conducted at two different times. A preliminary greenhouse study was conducted for each herbicide and species to determine a range of doses that would best fit a logistic regression. It is not unusual for both pre-emergence and post-emergence herbicides to provide control at lower than labeled rates, e.g., 0.5-560 g ai ha^−1 (aminocyclopyrachlor), 0.9-224 g ai ha^−1 (aminopyralid), and 0.05-11.7 g ai ha^−1 (indaziflam) in the greenhouse with ideal environmental conditions, so it was not surprising that herbicide doses for the regression analysis were much lower than recommended field use rates. Herbicides were applied pre-emergence using a Generation III research track sprayer (DeVries Manufacturing, Hollandale, Minn.) equipped with a TeeJet 8002 EVS flat-fan spray nozzle (TeeJet Spraying Systems Co., Wheaton, Ill.) at 187 L·ha-1 at 172 kPa.
(§4) Plants were harvested at the soil surface approximately 4 to 5 week-after-treatment (WAT) depending on the growth stage of each species. Weights were recorded after samples were dried for 5 days at 60° C. Percent dry weight reduction was calculated relative to the non-treated control plants for each treatment.
(§5) Data from the greenhouse dose-response experiment were first analyzed using the PROC MIXED method in SAS 9.3 with treatment as a fixed effect and experiment and replicate as random effects (SAS Institute 2010). Based on a non-significant homogeneity of variance (ANOVA) and experiment-by-herbicide rate interaction, results from the repeated experiments were pooled. The treatment effect was significant, therefore, nonlinear regression in Graphpad Prism 7.00 (GraphPad Software, La Jolla Calif. USA) was used to describe the response of the nine weed species to aminocyclopyrachlor, aminopyralid, and indaziflam. The herbicide concentrations resulting in 50% reduction in plant biomass (GR50) compared to the non-treated control were determined for each invasive weed species using four-parameter log-logistic regression. The equation used to regress herbicide concentration with percent reduction in plant dry biomass as compared to the non-treated control was:
(§6) where C and D represent the lower and upper limits of the dose-response curve, respectively, and b represents the slope of the best-fitting curve through the GR50 value. For curve fitting and GR50 estimation, the model was constrained to a maximum of 100 and minimum of 0. Mean separation of herbicide GR50 values were analyzed by Fisher's Protected LSD test at the 5% level of probability. […]

Data set [3] deals with Curly dock (Rumex crispus). Described as above. The following applies: pre-emergence. The class given is in vivo.
Source text: as §1, §2, §3, §4, §5, §6

The test system of data set [4] is Common mullein (Verbascum thapsus). Described as above. The class given is in vivo. The following applies: pre-emergence.
Source text: as §1, §2, §3, §4, §5, §6

For data set [5], the system named is Common teasel (Dipsacus fullonum). The data set is described as above. The data set is classed as in vivo. The following applies: for GR50 (herbicide dose resulting in 50% dry biomass reduction): pre-emergence.
Source text: as §1, §2, §3, §4, §5, §6

The test system of data set [6] is downy brome (Bromus tectorum). The description is as above. The class given is in vivo. The following applies: pre-emergence.
Source text: as §1, §2, §3, §4, §5, §6

Data set [7] has as its system Musk thistle (Carduus nutans). Described as above. The class given is in vivo. The following applies: pre-emergence.
Source text: as §1, §2, §3, §4, §5, §6

Data set [8] has as its system Marestail (Conyza Canadensis). Described as above. The data set is classed as in vivo. The following applies: pre-emergence.
Source text: as §1, §2, §3, §4, §5, §6

Data set [9] relates to Halogeton (Halogeton glomeratus). The description is as above. The following applies: pre-emergence. The data set is classed as in vivo.
Source text: as §1, §2, §3, §4, §5, §6

Data set [10] has as its system Dalmatian toadflax (Linaria dalmatica). The data set is described as above. The data set is classed as in vivo. The note with it: pre-emergence.
Source text: as §1, §2, §3, §4, §5, §6

The conditions of data set [11]: average; cited from earlier work.
The subject of data set [12] is Dalmatian toadflax (Linaria dalmatica). Briefly: Herbicide efficacy field trial, visual percent control of Dalmatian toadflax. The data set is classed as in vivo. The following applies: 4 YAT. The procedure: The present inventors conducted a field trial to evaluate the effectiveness of herbicides for long-term downy brome and Dalmatian toadflax control. The experiment was conducted at one site. The results provide the framework for the subsequent greenhouse experiment. (See below). The field experiment was located in Longmont, Colo. (lat 40° 14′57.53″N, long 105° 12′35.46″W) on Rabbit Mountain Open Space, the easternmost point of the foothills in Boulder County. The canopy cover of actively growing downy brome and Dalmatian toadflax at peak standing crop was approximately 85% and 30%, respectively. Before herbicide application (June and August), perennial grasses (<10% canopy cover) included primarily western wheatgrass (Pascopyrum smithii (Rydb.) A. Love), and native forbs and sub-shrubs (˜20% canopy cover) included Louisiana sage (Artemisia ludoviciana Nutt.), fringed sage (Artemisia frigida Willd.), common sunflower (Helianthus annuus L.), sulphur-flower buckwheat (Eriogonum umbellatum Torr.), and hairy goldenaster (Heterotheca villosa (Pursh) Shinners). The soil at the study site was Baller sandy loam (loamy-skeletal, mixed, superactive, mesic Lithic Haplustolls), with 1.5% organic matter in the top 20 cm. The average elevation was 1,725 m (5,660 ft). Mean annual precipitation based on the 30-yr average was 363 mm and the mean annual temperature was 9.1° C. […]. A statewide-drought occurred and average total precipitation decreased 134 mm; however, the site received an additional 110 mm above the 30-yr average.
Herbicides were applied in the summer at two application timings; June, when Dalmatian toadflax was in the flowering growth stage, and August, during Dalmatian toadflax regrowth. These two application timings (June and August) were both before downy brome emergence (PRE). The 13 herbicide treatments (including a non-treated control) were applied to 3 by 9 m plots arranged in a randomized complete block design with four replications, and are listed in Table 1. […]
For the herbicide efficacy field experiment, repeated measures analysis of variance (ANOVA) was used to determine the effects of herbicide treatments on long-term Dalmatian toadflax and downy brome control. Percent control data were first analyzed in SAS 9.3 using Proc MIXED, with year after treatment defined as the repeated measure (SAS Institute 2010). […] Dalmatian toadflax and downy brome control response variables were analyzed separately, and main effects and interactions were tested at the α=0.05 significance level. […] To determine herbicide impacts on residual Dalmatian toadflax and downy brome control, the significant treatment-by-year interaction was evaluated using the Proc GLIMMIX method and the LINES statement. […]

Consider three molecules from US20180289008A1, “METHODS FOR WILDFIRE CONTROL, INVASIVE PLANT CONTROL, AND RESIDUAL CONTROL OF INVASIVE PLANTS” (priority 2017, published 2018).

Turning to `Nc1nc(C2CC2)nc(C(=O)[O-])c1Cl.[K+]` [Aminocyclopyrachlor, aminocyclopyrachlor], the “Log Kow” value in data set [1] is given as −2.48. The “GR50 (herbicide dose resulting in 50% dry biomass reduction)” value in data set [2] was 6.20 c g ai ha^−1; in data set [3] it was 21.3 b g ai ha^−1; in data set [4] it was 3.05 b g ai ha^−1; in data set [5] it was 6.89 c g ai ha^−1; in data set [6] it was 56.4 b g ai ha^−1; in data set [7], 1.25 b g ai ha^−1. Further, the “GR50 (herbicide dose resulting in 50% dry biomass reduction)” value in data set [8] is recorded as 2.09 c g ai ha^−1; in data set [9], 1.04 b g ai ha^−1; in data set [10], 1.16 b g ai ha^−1. Moreover, the water solubility in data set [11] is listed as 4,200 mg L-1. Besides, the Dalmatian toadflax control in data set [12] (August application timing) stood at 55%; in [12] (June application timing) it was 50%.

On to `Nc1cc(Cl)nc(C(=O)O)c1Cl` [Aminopyralid, aminopyralid], for which the “Log Kow” value in data set [1] was −2.87. In addition, the “GR50 (herbicide dose resulting in 50% dry biomass reduction)” value in data set [2] amounted to 2.50 b g ai ha^−1; in data set [3], 1.25 a g ai ha^−1; in data set [4], 7.45 c g ai ha^−1; in data set [5], 0.75 a g ai ha^−1; in [6] it was 38.5 b g ai ha^−1; in data set [7] it was 0.31 a g ai ha^−1. The results for the “GR50 (herbicide dose resulting in 50% dry biomass reduction)” value in data set [8], in data set [9] and in [10] were 0.80 b g ai ha^−1, 3.11 c g ai ha^−1 and 14.8 c g ai ha^−1, respectively. The “times more active (lower GR50) compared to aminocyclopyrachlor” value in data set [5] is listed as 9. Further, the “times more active (lower GR50) compared to indaziflam” value in [5] is reported as 2. Moreover, the water solubility in data set [11] is on record as 207,000 mg L-1.

For `Nc1c(Cl)c(Cl)nc(C(=O)O)c1Cl` [Picloram, picloram], the “Log Kow” value in data set [1] is listed as 1.18. Further, the water solubility in [11] is 200,000 mg L-1. Besides, the Dalmatian toadflax control in data set [12] (August application timing) worked out at 64%; in data set [12] (June application timing), 68%.
